Measured values as given in patent US5296485A, “Substituted N-phenylpiperidines and drugs therefrom” (BASF Aktiengesellschaft, priority 1991, dated 1994).
Where two headings read alike, the source gives them in different places.

Columns and labels:
[1] = tested on: sigma binding sites; details: J. Pharmacol. Exp. Ther. 238 (1986) 739; cited from earlier work
[2] = tested on: guinea-pig hearts; assay: ECG measurement of QT prolongation on isolated perfused (Langendorff) guinea-pig hearts; parameters: species or system guinea-pig (male Duncin-Hartley); details: Cavia porcellus, 0.25 h; isolated guinea-pig heart, Krebs-Henseleit perfusate, 37° C., cumulative addition at 15 min intervals; linear regression on log dose; read-out: ED20% (dose at which the QT interval is increased by 20% from the initial level)
From the text: In this connection, the cardiac cycle is divided into systole (contraction of the heart), also called QT interval, and diastole (relaxation of the heart with filling of the ventricles with blood). Repolarization inhibitors increase the QT interval but have a negligible effect on the atrioventricular conduction time (PQ interval) and the period of isometric contraction (QRS time, from start of systole to opening of the semilunar valves) (see Pschyrembel, 254th Edition, 1982).
The activity of the compounds according to the invention as repolarization inhibitors can be investigated in animal experiments by ECG measurements on, for example, guinea-pig hearts (see Basic Res. Cardiol. 82 (1987) 437; J. Pharmacol. Methods 21 (1989) 195). Comparison of the activities of various substances is based, for example, on the dose of an active substance at which the QT interval is increased by 20% from the initial level (ED20%). To do this, the logarithms of the doses of the substances are plotted against the experimentally found relative changes in the QT interval, and linear regression is used to determine the equation of a straight line from which the ED20% can then be calculated.
This method was used to determine the ED20% values of compounds according to the invention (see Table 1) . The comparison substance was D-sotalol [4'-(1-hydroxy-2-(isopropylamino)ethyl)methanesulfonanilide].
The experimental animals were male Duncin-Hartley guinea-pigs weighing from 300 to 350 g. 30 min after administration of 1250 I.U. of heparin/kg of body weight into the abdominal cavity, the animals were sacrificed by a blow to the back of the neck. The common carotid arteries were severed for exsanguination, then the thoracic cavity was opened and the heart was removed and connected to a perfusion apparatus. The Langendorff perfusion was carried out with oxygen-enriched Krebs-Henseleit solution (NaCl 6896 mg/l; KCl 350 mg/l; MgSO4 285 mg/l; CaCl2 370 mg/l; KH2 PO4 161 mg/l; NaHCO3 2090 mg/l; glucose 2000 mg/1) at 37° C. The perfusion volume per unit time was 4 to 6 ml/min, the total volume was 100 ml and the perfusion pressure was 60 to 70 mm Hg. Circulating perfusion was carried out after an equilibration time of 30 min.
Two silver electrodes attached to the surface of the heart in the upper region of the left coronary artery and on the rear of the heart at the level of the valve were used for the ECG recordings. The PQ and QT intervals and QRS times, and the heart rate, were measured.
The substances were added to the perfusate cumulatively at 15 min intervals.

[3] = target: sigma receptor; assay: Sigma receptor binding ([^3 H]-ditolylguanidine); details: rat cerebra membranes, pH 7.7, 37° C., read-out: Activity constants Ki for the [^3 H]-ditolylguanidine binding site
[4] = tested on: humans; details: substances which bind to sigma receptors; J. Pharmacol. Exp. Ther. 197 (1976) 517; cited from earlier work
[5] = tested on: sigma receptor; details: cited from earlier work

In the case of OC(CCCN1CCN(c2ncc(F)cn2)CC1)c1ccc(F)cc1 (stereo not drawn) [BMY 14802, α-(4-fluorophenyl)-4-(5-fluoro-2-pyrimidinyl)-1-piperazinebutanol], the “affinity for sigma binding sites” value [1] is listed as “high affinity”.
For CC(C)NC[C@@H](O)c1ccc(NS(C)(=O)=O)cc1 [D-sotalol, 4'-(1-hydroxy-2-(isopropylamino)ethyl)methanesulfonanilide], the EC20 [2] was 16000 nM.
In the case of CN(Cc1ccccc1)CC1CCN(c2ccc([N+](=O)[O-])cc2)CC1 [Example 2, 4-(N-Benzyl-N-methylaminomethyl)-1-(4-nitrophenyl)piperidine], the EC20 [2] is reported as 420 nM and the Ki [3] is reported as 11 nM.
N#Cc1ccc(N2CCC(N3CCN(c4ccc([N+](=O)[O-])cc4)CC3)CC2)cc1 [Example 3, N-[1-(4-Cyanophenyl)-4-piperidinyl)-N'-(4-nitrophenyl)piperazine] showed an EC20 [2] of 31 nM.
In the case of O=[N+]([O-])c1ccc(N2CCC(N3CCC(c4ccccc4)CC3)CC2)cc1 [Example 8, 1-(4-Nitrophenyl)-4-(4-phenyl-1-piperidinyl)piperidine], the Ki [3] is reported as 2.8 nM.
Work on CN(Cc1ccc(NS(C)(=O)=O)cc1)CC1CCN(c2ccc(NS(C)(=O)=O)cc2)CC1 [Example 10, 1-(4-Methanesulfonamidophenyl)-4-[N-(4-methanesulfonamidobenzyl)-N-methylaminomethyl]piperidine] yielded an EC20 [2] of 960 nM.
Compound CN(Cc1ccccc1)C1CCCN(c2ccc([N+](=O)[O-])cc2)C1 (stereo not shown) [Example 11, 3-(N-benzyl-N-methylamino)-1-(4-nitrophenyl)piperidine] has an EC20 [2] of 1100 nM and a Ki [3] of 2 nM.
In the case of CN(CC(O)c1ccc(F)cc1)C1CCN(c2ccc([N+](=O)[O-])cc2)CC1 (stereo not shown) [Example 12, 4-[N-[2-(4-Fluorophenyl)-2-hydroxyethyl]-N-methylamino]-1-(4-nitrophenyl)piperidine], the EC20 [2] is reported as 210 nM.
In the case of C[C@H]1[C@H]2Cc3ccc(O)cc3[C@]1(C)CCN2CC1CC1 [cyclazocine], the “psychotomimetic effects in humans” value [4] is listed as “psychotomimetic effects”.
For O=C(CCCN1CCC(O)(c2ccc(Cl)cc2)CC1)c1ccc(F)cc1 [haloperidol], the “affinity of the haloperidol-sensitive sigma receptors” value [5] is given as “high affinity” and the “affinity for sigma binding sites” value [1] is given as “high affinity”.
For CNC1(c2ccccc2Cl)CCCCC1=O (stereo not shown) [ketamine], the “psychotomimetic effects in humans” value [4] is listed as “psychotomimetic effects”.
In the case of CC(C)=CCN1CCC2(C)c3cc(O)ccc3CC1C2C (stereo not shown) [pentazocine], the “psychotomimetic effects in humans” value [4] is given as “psychotomimetic effects”.
In the case of c1ccc(C2(N3CCCCC3)CCCCC2)cc1 [phencyclidine], the “affinity of the haloperidol-sensitive sigma receptors” value ([5]; statement in words on the receptor used in the assay) is given as “low affinity”.
